Tests used:
Type in all cases: cell-based
NCI-H2073 = experiment: Cell growth inhibition (CellTiter-Glo), NCI-H2073; settings: 72 h, NCI-H2073 cells, 3 days after administration
Protocol: (§1) 2. Cell Growth Inhibition for HCC827, HCC827-LTC, HCC827-DTC and NCI-H2073.
(§2) HCC827(ATCC), HCC827-LTC, HCC827-DTC and NCI-H2073 (ATCC) were seeded in 96-well plates at 5000 cells/well in 90 μL of RPMI growth medium containing 10% FBS and 1% Penicillin Streptomycin. Cells were incubated at 37° C. overnight. The following day, the test compound was administered to the cells by using 10× compound stock solution prepared in growth medium at various concentrations. After administration of the compound, cells were then incubated at 37° C. for 3 days. Before CellTiter-Glo assay, the plates were equilibrated at room temperature for approximately 10 minutes. 100 ul of CellTiter-Glo® Reagent (Promega) was added to each well. The plates were then incubated at room temperature for 10 minutes and luminescence was recorded by EnSpire plate reader (PerkinElmer).

HCC827 = experiment: Cell growth inhibition (CellTiter-Glo), HCC827; settings: Homo sapiens, 72 h, HCC827 cells, 3 days after administration
Protocol: as §1, §2

[1] = system: HCC827-LTC (HCC827 cells stably expressing human EGFR L858R/T790M/C797S, endogenous EGFR knocked out); experiment: Cell growth inhibition (CellTiter-Glo), HCC827-LTC; settings: 72 h, 3 days after administration
Protocol: (§3) 1. Preparation of HCC827-LTC and HCC827-DTC Cell Lines
(§4) HCC827 cells (ATCC) were transduced with lentiviral particles expressing codon-optimized human EGFR L858R/T790M/C797S (LTC) mutant or del19/T790M/C797S (DTC) mutant, and then selecting under 5 ug/ml purimycin treatment for a week to generate HCC827 cells stably expressing EGFR LTC or DTC mutants. Next, endogenous EGFR gene in purimycin-selected HCC827 LTC or DTC cells was knocked out using CRISPR-Cas9 technology to ensure the growth of engineered HCC827 cells was solely dependent on exogenous EGFR LTC or DTC mutants. For the EGFR knockout, gRNA complex was prepared by combining Alt-R CRISPR-Cas9 tracrRNA and EGFR crRNA (5′-[…]-3′ for LTC) or (5′-[…]-3′ for DTC) (IDT-Integrated DNA Technologies), and then EGFR ribonucleoprotein (RNP) complex was prepared by combining gRNA complex and Alt-R S.p. Cas9 Nuclease V3 (IDT-Integrated DNA Technologies). Purimycin-selected HCC827 LTC or DTC cells were then electroporated with EGFR RNP complexes using Neon Transfection System (Thermo Fisher). Single clones of HCC827-LTC or HCC827-DTC with endogenous EGFR knockout were picked one week after electroporation and their EGFR knockout was validated by genomic DNA sequencing. HCC827-LTC or HCC827-DTC single clones were also further validated with loss of inhibitory activity by covalent EGFR inhibitors.
as §1, §2

[2] = system: HCC827-DTC (HCC827 cells stably expressing human EGFR del19/T790M/C797S, endogenous EGFR knocked out); experiment: Cell growth inhibition (CellTiter-Glo), HCC827-DTC; settings: 72 h, 3 days after administration
Protocol: as §3, §4, §1, §2

GI50 (NCI-H2073) [nM]	GI50 (HCC827) [nM]	GI50 [1] [nM]	GI50 [2] [nM]	SMILES
100 to 300	30 to 100	100 to 300	100 to 300	COc1cc(N2CCC(N3CCN(C)CC3)CC2)c(C)cc1Nc1ncc(Br)c(Nc2ccc3nccnc3c2NS(C)(=O)=O)n1 [Compound 1, N-(6-((5-bromo-2-((2-methoxy-5-methyl-4-(4-(4-methylpiperazin-1-yl)piperidin-1-yl)phenyl)amino)pyrimidin-4-yl)amino)quinoxalin-5-yl)methanesulfonamide]
100 to 300	< 30	30 to 100	30 to 100	CCc1cc(Nc2ncc(Br)c(Nc3ccc4nccnc4c3NS(C)(=O)=O)n2)c(OC)cc1N1CCC(N2CCN(C)CC2)CC1 [Compound 2, N-(6-((5-bromo-2-((5-ethyl-2-methoxy-4-(4-(4-methylpiperazin-1-yl)piperidin-1-yl)phenyl)amino)pyrimidin-4-yl)amino)quinoxalin-5-yl)methanesulfonamide]
100 to 300	30 to 100	100 to 300	100 to 300	COc1cc(N2CCC(N3CCN(C)CC3)CC2)c(C)cc1Nc1ncnc(Nc2ccccc2NS(C)(=O)=O)n1 [Compound 3, N-(2-((4-((2-methoxy-5-methyl-4-(4-(4-methylpiperazin-1-yl)piperidin-1-yl)phenyl)amino)-1,3,5-triazin-2-yl)amino)phenyl)methanesulfon-amide]
30 to 100	< 30	100 to 300	30 to 100	COc1cc(N2CCC(N3CCN(C)CC3)CC2)c(C)cc1Nc1ncc(Cl)c(Nc2ccc3nccnc3c2NS(C)(=O)=O)n1 [Compound 4, N-(6-((5-chloro-2-((2-methoxy-5-methyl-4-(4-(4-methylpiperazin-1-yl)piperidin-1-yl)phenyl)amino)pyrimidin-4-yl)amino)quinoxalin-5-yl)methanesulfonamide]

— patent US20240051940A1, “SULFONAMIDES WITH EGFR INHIBITION ACTIVITIES AND THEIR USE THEREOF” (ACCUTAR BIOTECHNOLOGY INC., priority 2021, published 2024)
